This is an account of results in ChEMBL document CHEMBL3596196, “In vitro evaluation and in silico screening of synthetic acetylcholinesterase inhibitors bearing functionalized piperidine pharmacophores” (Bioorg Med Chem, 2015).

The test has as its target Acetylcholinesterase (Homo sapiens, UniProt P22303). Briefly: Inhibition of human acetylcholinesterase using ATCI/DTNB as substrate preincubated for 30 mins followed by substrate addition measured for 60 mins by Ellman method. (In general: DTNB colorimetry detects thiols as they appear.)

Sequence of Acetylcholinesterase (P22303 whole entry): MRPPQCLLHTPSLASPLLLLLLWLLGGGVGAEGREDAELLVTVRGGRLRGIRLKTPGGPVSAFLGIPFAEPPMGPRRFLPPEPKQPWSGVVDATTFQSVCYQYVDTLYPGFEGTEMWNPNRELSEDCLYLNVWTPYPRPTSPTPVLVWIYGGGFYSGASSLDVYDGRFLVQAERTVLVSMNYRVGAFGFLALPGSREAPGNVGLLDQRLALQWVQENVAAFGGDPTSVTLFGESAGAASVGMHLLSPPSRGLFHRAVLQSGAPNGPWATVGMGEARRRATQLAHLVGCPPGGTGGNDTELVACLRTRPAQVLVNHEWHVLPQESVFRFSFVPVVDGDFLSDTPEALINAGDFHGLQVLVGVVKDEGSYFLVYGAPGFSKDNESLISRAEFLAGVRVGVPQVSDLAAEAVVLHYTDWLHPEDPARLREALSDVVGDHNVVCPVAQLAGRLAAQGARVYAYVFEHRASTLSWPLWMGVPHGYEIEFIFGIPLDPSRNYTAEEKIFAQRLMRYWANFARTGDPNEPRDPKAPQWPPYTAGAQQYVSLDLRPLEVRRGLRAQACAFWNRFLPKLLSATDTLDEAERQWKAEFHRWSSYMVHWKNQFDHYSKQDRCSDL

With `CCOC(=O)C1=C(Nc2ccccc2)C[C@@H](c2ccccc2)N(c2ccccc2)[C@@H]1c1ccccc1`, under “read-out: pIC50 (converted)”, the IC50 is 2.95 µM. Regarding `COC(=O)C1=C(Nc2ccccc2)C[C@@H](c2ccccc2)N(c2ccccc2)[C@@H]1c1ccccc1`, the IC50 (read-out: pIC50 (converted)) was 6.52 µM. Same read-out and setting: the same measure for `COC(=O)C1=C(Nc2ccccc2)C[C@@H](c2ccc(C)cc2)N(c2ccccc2)[C@@H]1c1ccc(C)cc1`: 5.73 µM; for `CCOC(=O)C1=C(Nc2ccccc2)C[C@@H](c2ccc(C)cc2)N(c2ccccc2)[C@@H]1c1ccc(C)cc1`: 5.58 µM. On the same count and under the same terms, the same measure for `COC(=O)C1=C(Nc2ccc(C)cc2)C[C@@H](c2ccc(C)cc2)N(c2ccc(C)cc2)[C@@H]1c1ccc(C)cc1`: 6.78 µM; for `COC(=O)C1=C(Nc2ccc(Br)cc2)C[C@@H](c2ccc(C)cc2)N(c2ccc(Br)cc2)[C@@H]1c1ccc(C)cc1`: 2.48 µM. For the molecule `COC(=O)C1=C(Nc2ccc(Cl)cc2)C[C@@H](c2ccc(C)cc2)N(c2ccc(Cl)cc2)[C@@H]1c1ccc(C)cc1`, the IC50 (read-out: pIC50 (converted)) was 2.15 µM. Same read-out and setting: the same measure for `COC(=O)C1=C(Nc2ccc(OC)cc2)C[C@@H](c2ccc(C)cc2)N(c2ccc(OC)cc2)[C@@H]1c1ccc(C)cc1`: 5.83 µM; for `CCOC(=O)C1=C(Nc2ccc(OC)cc2)C[C@@H](c2ccc(C)cc2)N(c2ccc(OC)cc2)[C@@H]1c1ccc(C)cc1`: 4.98 µM. On the same count and under the same terms, to `CCOC(=O)C1=C(Nc2ccc(OC)cc2)C[C@@H](c2ccccc2)N(c2ccc(OC)cc2)[C@@H]1c1ccccc1` belongs 2.25 µM.

As for `CCOC(=O)C1=C(Nc2ccc(Cl)cc2)C[C@@H](c2ccccc2)N(c2ccc(Cl)cc2)[C@@H]1c1ccccc1`, the IC50 (read-out: pIC50 (converted)) was 4.6 µM. Same read-out and setting: the same measure for `CCOC(=O)C1=C(Nc2ccc(C)cc2)C[C@@H](c2ccccc2)N(c2ccc(C)cc2)[C@@H]1c1ccccc1`: 5.18 µM; for `COC(=O)C1=C(Nc2ccc(F)cc2)C[C@@H](c2ccccc2)N(c2ccc(F)cc2)[C@@H]1c1ccccc1`: 15.1 µM; for `CCOC(=O)C1=C(Nc2ccc(F)cc2)C[C@@H](c2ccc(Cl)cc2)N(c2ccc(F)cc2)[C@@H]1c1ccc(Cl)cc1`: 0.55 µM.

Consider `CCOC(=O)C1=C(Nc2ccccc2)C[C@@H](c2ccc(F)cc2)N(c2ccccc2)[C@@H]1c1ccc(F)cc1`, for which the IC50 (read-out: pIC50 (converted)) is 0.39 µM. The same measure, in the same setting: to `COC(=O)C1=C(Nc2ccc(F)cc2)C[C@@H](c2ccc(F)cc2)N(c2ccc(F)cc2)[C@@H]1c1ccc(F)cc1` belongs 3.2 µM; to `COC(=O)C1=C(Nc2ccc(Cl)cc2)C[C@@H](c2ccc(F)cc2)N(c2ccc(Cl)cc2)[C@@H]1c1ccc(F)cc1`, 0.71 µM; to `CC(C)(C)OC(=O)C1=C(Nc2ccccc2)C[C@@H](c2ccccc2)N(c2ccccc2)[C@@H]1c1ccccc1`, 2.79 µM. `COC(=O)C1=C(Nc2ccccc2)C[C@@H](c2ccc(Cl)cc2)N(c2ccccc2)[C@@H]1c1ccc(Cl)cc1`: the IC50 (read-out: pIC50 (converted)) was 0.879 µM. On the same count and under the same terms, to `CCOC(=O)C1=C(Nc2ccc(C)cc2)C[C@@H](c2ccc(Cl)cc2)N(c2ccc(C)cc2)[C@@H]1c1ccc(Cl)cc1` belongs 5.4 µM; to `COC(=O)C1=C(Nc2ccc(Br)cc2)C[C@@H](c2ccc(Cl)cc2)N(c2ccc(Br)cc2)[C@@H]1c1ccc(Cl)cc1`, 0.879 µM; to `COC(=O)C1=C(Nc2ccc(Br)cc2)C[C@@H](c2ccc(OC)cc2)N(c2ccc(Br)cc2)[C@@H]1c1ccc(OC)cc1`, 2.16 µM. On the same count and under the same terms, to `CCOC(=O)C1=C(Nc2ccc(Cl)cc2)C[C@@H](c2ccc(OC)cc2)N(c2ccc(Cl)cc2)[C@@H]1c1ccc(OC)cc1` belongs 0.38 µM. Take `COC(=O)C1=C(Nc2ccccc2)C[C@@H](c2ccccc2[N+](=O)[O-])N(c2ccccc2)[C@@H]1c1ccccc1[N+](=O)[O-]`: the IC50 entry was “Not Active”. With `COC(=O)C1=C(Nc2ccccc2)C[C@@H](c2ccc3c(c2)OCO3)N(c2ccccc2)[C@@H]1c1ccc2c(c1)OCO2`, the IC50 (read-out: IC50) stood at 3270 µM and the IC50 (read-out: pIC50 (converted)) is 0.511 µM.
